The text below walks through data of US6569891B1, “Antihypertensive compound from Caesalpinia brasiliensis” (Brigham Young University, priority 2002, dated 2003).

The nature of data set [1]: conversion of brazilin in hot water. The class given is physicochemical.
Data set [2] deals with hypertensive Sprague-Dawley rats. In words: antihypertensive activity, sample in drinking water of hypertensive rats, tail cuff systolic blood pressure. Type of data set: in vivo. The conditions noted are these: 100 μg/ml in drinking water, after 36 hours; for reduction in systolic blood pressure: tail cuff. The method, then:
The crude extract and HPLC fractions prepared according to the procedure of Example 1 (with a preparative-scale (21.4×250 mm) column), were tested for antihypertensive activity by adding the sample to be tested at a concentration of 100 μg/ml to the drinking water of hypertensive Sprague-Dawley rats. After 36 hours, systolic blood pressures were measured with a Harvard tail cuff apparatus attached to a Beckman R511A recorder.

The structures appear in SMILES notation.

On to `Oc1ccc2c(c1)OC[C@]1(O)Cc3cc(O)c(O)cc3[C@H]21` [Brazilin, brazilin], for which, in data set [1], the “stability in hot water” value is on record as “slowly converted to haematoxylin”.

`Oc1cc2c(cc1O)C13c4ccc(O)c(O)c4OCC1(C2)OC1(O)CC=C2CC4(O)COc5c(ccc(O)c5O)C4=C2C13` (single isomer, unassigned) [peak A]: the “systolic blood pressure after treatment” value in data set [2] (brought into the normal range) is given as 110-120 mm Hg. Moreover, the “reduction in systolic blood pressure” value in data set [2] is listed as “about 35%”.

In the case of `Oc1cc2c(cc1O)C1c3ccc(O)c(O)c3OCC1(O)C2` (single isomer, unassigned) [Peak B, haematoxylin], in data set [2], the “reduction in systolic blood pressure” value was around 12%.
